From patent US11945806B2, “Stabilization of amyloidogenic immunoglobulin light chains” (The Scripps Research Institute, priority 2019, dated 2024)

These compounds were tested against WIL-FL (Homo sapiens, UniProt P01721) (assay: Unlabeled LC Protease Sensitivity Assay (proteinase K)). Conditions: small molecule 10 μM, WIL-FL 5 μM, proteinase K 50 nM, 2 hours at 37° C.
Assay type: biochemical
Summary of the method: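 WIL-FL light chain (5 μM) in PBS pH 7.4 + 0.02% Pluronic F-127 digested with proteinase K (50 nM) for 2 h at 37 °C with 10 μM compound (1% DMSO). Intact WIL-FL quantified by size-exclusion UPLC (A280). Fold protection = (A_compound−A_vehicle)/(A_no_protease−A_vehicle) from peak areas.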

SMILES | Protection (fold protection of LC from protease)
CCN(CC)c1ccc2c(C)c(CCNC(=O)NCCc3ccc(O)cc3)c(=O)oc2c1 [Compound 280, 1-(2-(7-(diethylamino)-4-methyl-2-oxo-2H-chromen-3-yl)ethyl)-3-(4-hydroxyphenethyl)urea] | B (3 ≤ B < 0.6)
CCN(CC)c1ccc2c(C)c(CCNC(=O)NCCc3cnc[nH]3)c(=O)oc2c1 [Compound 281, 1-(2-(1H-imidazol-5-yl)ethyl)-3-(2-(7-(diethylamino)-4-methyl-2-oxo-2H-chromen-3-yl)ethyl)urea] | B (3 ≤ B < 0.6)
CCN(CC)c1ccc2c(C)c(CCNC(=O)NCc3cccc(Cl)n3)c(=O)oc2c1 [Compound 282, 1-((6-chloropyridin-2-yl)methyl)-3-(2-(7-(diethylamino)-4-methyl-2-oxo-2H-chromen-3-yl)ethyl)urea] | B (3 ≤ B < 0.6)
CCN(CC)c1ccc2c(C)c(CCNC(=O)NCc3ccc(-c4ccccc4)cc3)c(=O)oc2c1 [Compound 283, 1-([1,1′-biphenyl]-4-ylmethyl)-3-(2-(7-(diethylamino)-4-methyl-2-oxo-2H-chromen-3-yl)ethyl)urea] | A (A < 0.3))
CCN(CC)c1ccc2c(C)c(CCNC(=O)NCc3cccc(-c4ccccc4)c3)c(=O)oc2c1 [Compound 284, 1-([1,1′-biphenyl]-3-ylmethyl)-3-(2-(7-(diethylamino)-4-methyl-2-oxo-2H-chromen-3-yl)ethyl)urea] | B (3 ≤ B < 0.6)
CCN(CC)c1ccc2c(C)c(CCNC(=O)NCc3cccc4ccccc34)c(=O)oc2c1 [Compound 285, 1-(2-(7-(diethylamino)-4-methyl-2-oxo-2H-chromen-3-yl)ethyl)-3-(naphthalen-1-ylmethyl)urea] | A (A < 0.3))
CCN(CC)c1ccc2c(C)c(CCNC(=O)NCc3ccc(=O)[nH]c3)c(=O)oc2c1 [Compound 286, 1-(2-(7-(diethylamino)-4-methyl-2-oxo-2H-chromen-3-yl)ethyl)-3-((6-oxo-1,6-dihydropyridin-3-yl)methyl)urea] | A (A < 0.3))
CCN(CC)c1ccc2c(C)c(CCNC(=O)NCc3ccnc4ccccc34)c(=O)oc2c1 [Compound 287, 1-(2-(7-(diethylamino)-4-methyl-2-oxo-2H-chromen-3-yl)ethyl)-3-(quinolin-4-ylmethyl)urea] | A (A < 0.3))
CCN(CC)c1ccc2c(C)c(CCNC(=O)NCc3cnc4ccccc4c3)c(=O)oc2c1 [Compound 288, 1-(2-(7-(diethylamino)-4-methyl-2-oxo-2H-chromen-3-yl)ethyl)-3-(quinolin-3-ylmethyl)urea] | B (3 ≤ B < 0.6)
CCN(CC)c1ccc2c(C)c(CCNC(=O)NCc3cncc4ccccc34)c(=O)oc2c1 [Compound 289, 1-(2-(7-(diethylamino)-4-methyl-2-oxo-2H-chromen-3-yl)ethyl)-3-(isoquinolin-4-ylmethyl)urea] | C (C ≥ 0.6)
CCN(CC)c1ccc2c(C)c(CCNC(=O)NCc3nccc4ccccc34)c(=O)oc2c1 [Compound 290, 1-(2-(7-(diethylamino)-4-methyl-2-oxo-2H-chromen-3-yl)ethyl)-3-(isoquinolin-1-ylmethyl)urea] | C (C ≥ 0.6)
CCN(CC)c1ccc2c(C)c(CCNC(=O)NCc3cccc(-c4c[nH]cn4)c3)c(=O)oc2c1 [Compound 291, 1-(3-(1H-imidazol-4-yl)benzyl)-3-(2-(7-(diethylamino)-4-methyl-2-oxo-2H-chromen-3-yl)ethyl)urea] | C (C ≥ 0.6)
CCN(CC)c1ccc2c(C)c(CCNC(=O)NCc3ccc4ccccc4c3)c(=O)oc2c1 [Compound 292, 1-(2-(7-(diethylamino)-4-methyl-2-oxo-2H-chromen-3-yl)ethyl)-3-(naphthalen-2-ylmethyl)urea] | C (C ≥ 0.6)
CCN(CC)c1ccc2c(C)c(CCNC(=O)NCc3ccc4ccccc4n3)c(=O)oc2c1 [Compound 293, 1-(2-(7-(diethylamino)-4-methyl-2-oxo-2H-chromen-3-yl)ethyl)-3-(quinolin-2-ylmethyl)urea] | B (3 ≤ B < 0.6)
CCN(CC)c1ccc2c(C)c(CCNC(=O)NCc3ccncn3)c(=O)oc2c1 [Compound 294, 1-(2-(7-(diethylamino)-4-methyl-2-oxo-2H-chromen-3-yl)ethyl)-3-(pyrimidin-4-ylmethyl)urea] | A (A < 0.3))
CCN(CC)c1ccc2c(C)c(CCNC(=O)NCc3cc4ccccc4cn3)c(=O)oc2c1 [Compound 295, 1-(2-(7-(diethylamino)-4-methyl-2-oxo-2H-chromen-3-yl)ethyl)-3-(isoquinolin-3-ylmethyl)urea] | B (3 ≤ B < 0.6)

SMILES | Protection (fold protection of LC from protease)
CCN(CC)c1ccc2c(C)c(CCNC(=O)NCc3ccc4c(=O)[nH]ccc4c3)c(=O)oc2c1 [Compound 296, 1-(2-(7-(diethylamino)-4-methyl-2-oxo-2H-chromen-3-yl)ethyl)-3-((1-oxo-1,2-dihydroisoquinolin-6-yl)methyl)urea] | B (3 ≤ B < 0.6)
CCN(CC)c1ccc2c(C)c(CCNC(=O)NCc3cc(F)cc(C(=O)O)c3)c(=O)oc2c1 [Compound 297, 3-((3-(2-(7-(diethylamino)-4-methyl-2-oxo-2H-chromen-3-yl)ethyl)ureido)methyl)-5-fluorobenzoic acid] | A (A < 0.3))
CCN(CC)c1ccc2c(C)c(CCNC(=O)NCc3cccc(C(N)=O)c3)c(=O)oc2c1 [Compound 298, 3-((3-(2-(7-(diethylamino)-4-methyl-2-oxo-2H-chromen-3-yl)ethyl)ureido)methyl)benzamide] | B (3 ≤ B < 0.6)
CCN(CC)c1ccc2c(C)c(CCNC(=O)NCc3cccc(S(N)(=O)=O)c3)c(=O)oc2c1 [Compound 299, 3-((3-(2-(7-(diethylamino)-4-methyl-2-oxo-2H-chromen-3-yl)ethyl)ureido)methyl)benzenesulfonamide] | B (3 ≤ B < 0.6)
CCN(CC)c1ccc2c(CCCOC(=O)NCc3ccccc3)cc(=O)oc2c1 [Compound 300, 3-(7-(diethylamino)-2-oxo-2H-chromen-4-yl)propyl benzylcarbamate] | A (A < 0.3))
CCN(CC)c1ccc2c(CCCOC(=O)NCc3ccncc3)cc(=O)oc2c1 [Compound 301, 3-(7-(diethylamino)-2-oxo-2H-chromen-4-yl)propyl (pyridin-4-ylmethyl)carbamate] | A (A < 0.3))
CCN(CC)c1ccc2c(CCCOC(=O)NCc3cccc(C(N)=O)c3)cc(=O)oc2c1 [Compound 302, 3-(7-(diethylamino)-2-oxo-2H-chromen-4-yl)propyl (3-carbamoylbenzyl)carbamate] | A (A < 0.3))
CCN(CC)c1ccc2c(CCCOC(=O)NCc3cccc(S(N)(=O)=O)c3)cc(=O)oc2c1 [Compound 303, 3-(7-(diethylamino)-2-oxo-2H-chromen-4-yl)propyl (3-sulfamoylbenzyl)carbamate] | A (A < 0.3))
CCN(CC)c1ccc2c(CCCOC(=O)NCc3cccc(-c4c[nH]cn4)c3)cc(=O)oc2c1 [Compound 304, 3-(7-(diethylamino)-2-oxo-2H-chromen-4-yl)propyl (3-(1H-imidazol-4-yl)benzyl)carbamate] | A (A < 0.3))
CCN(CC)c1ccc2c(CCCOC(=O)NCc3cccc(CCC(=O)O)c3)cc(=O)oc2c1 [Compound 305, 3-(3-((((3-(7-(diethylamino)-2-oxo-2H-chromen-4-yl)propoxy)carbonyl)amino)methyl)phenyl)propanoic acid] | A (A < 0.3))
CCN(CC)c1ccc2c(CCCOC(=O)NCc3cccc(CCC(=O)OC)c3)cc(=O)oc2c1 [Compound 306, Methyl 3-(3-((((3-(7-(diethylamino)-2-oxo-2H-chromen-4yl)propoxy)carbonyl)amino)methyl)phenyl)propanoate] | A (A < 0.3))
CCN(CC)c1ccc2c(C)c(CCNC(=O)NCc3cccc(CCC(=O)O)c3)c(=O)oc2c1 [Compound 307, 3-(3-((3-(2-(7-(diethylamino)-4-methyl-2-oxo-2H-chromen-3-yl)ethyl)ureido)methyl)phenyl)propanoic acid] | B (3 ≤ B < 0.6)
CCN(CC)c1ccc2c(C)c(CCNC(=O)NCc3cccc(CCC(=O)OC)c3)c(=O)oc2c1 [Compound 308, Methyl 3-(3-((3-(2-(7-(diethylamino)-4-methyl-2-oxo-2H-chromen-3-yl)ethyl)ureido)methyl)phenyl)propanoate] | B (3 ≤ B < 0.6)
CCN(CC)c1ccc2c(C)c(CCOC(=O)NCc3cccc(CCC(=O)O)c3)c(=O)oc2c1 [Compound 309, 3-(3-((((2-(7-(diethylamino)-4-methyl-2-oxo-2H-chromen-3-yl)ethoxy)carbonyl)amino)methyl)phenyl)propanoic acid] | A (A < 0.3))
CCN(CC)c1ccc2c(C)c(CCOC(=O)NCc3cccc(CCC(=O)OC)c3)c(=O)oc2c1 [Compound 310, Methyl 3-(3-((((2-(7-(diethylamino)-4-methyl-2-oxo-2H-chromen-3-yl)ethoxy)carbonyl)amino)methyl)phenyl)propanoate] | A (A < 0.3))
CCN(CC)c1ccc2c(C)c(CCNC(=O)NCc3cccc(OCC(=O)O)c3)c(=O)oc2c1 [Compound 311, 2-(3-((3-(2-(7-(diethylamino)-4-methyl-2-oxo-2H-chromen-3-yl)ethyl)ureido)methyl)phenoxy)acetic acid] | B (3 ≤ B < 0.6)
